Experimental data reported in patent US6989401B2, “Sulfonic acid derivatives of hydroxamic acids and their use as medicinal products” (Mitsubishi Pharma Corporation, priority 2000, dated 2006).
Like-named read-outs stand apart in the source and are kept apart here.

Tests used:
[1] = system: LPS in E. coli culture supernatant (E. coli NIHJ JC-2 strain); assay: Inhibitory effect on LPS in E. coli culture supernatant; format: cell-based; settings: 24 hr; for inhibitory effect of compound on LPS in E. coli culture supernatant, relative ratio: relative ratio to the inhibitory ratio of the compound of Example 1 as 1.0, compound 100 μM
Method: One platinum loop of E. coli NIHJ JC-2 strain was inoculated into a test tube containing heart infusion broth (HIB, 5 mL) and cultured for about 24 hr. The bacterial culture broth was washed three times by centrifugation (3000 rpm, 15 min, 20° C., TOMY Seiko, RL-131) using 10 mL of fresh HIB medium for one cycle of washing. The washed bacteria were prepared to an about 10^7 colony forming unit (CFU)/mL with a fresh HIB medium, and 0.2 mL of the prepared bacterial suspension was inoculated into an Erlenmeyer flask containing a fresh HIB medium (18.8 mL) (i.e., to final bacterial concentration of about 10^5 CFU/mL). A solution (1 mL) of each compound prepared to a concentration of 2 mM (final concentration of compound 100 μM) was added to the culture broth containing the bacteria. Using a shaker (RGR-1 type, manufactured by IWASHIYA, Ltd.), shake culture was conducted at 37° C., and 2 mL of culture broth after 24 hr was sampled. The sampled culture broth was filtered (DISMIC, 0.45 μm, Advantech Toyo) and diluted 10^5-fold with sterile distilled water. The resulting suspension (200 μL) was added to a limulus reagent (LAL ES, Wako Pure Chemical Industries) and LPS concentration was measured using Toxinometer MT-285 (Wako Pure Chemical Industries) preheated to 37° C.
The LPS inhibitory ratio of the compound was calculated as a ratio of the LPS concentration of the compound addition group relative to the LPS concentration of the compound non-addition group. […] The inhibitory ratio of each compound is shown in the following in Table 1 as a relative ratio to the inhibitory ratio of the compound of Example 1 as 1.0.

[2] = system: LPS in rat peritonitis (CLP; cecal ligation and puncture) model; assay: Inhibitory effect on LPS that increases in rat peritonitis (CLP) model; format: in vivo; settings: iv, continuous tail vein infusion 2.5 mg/kg/hr
Method: Rat peritonitis (CLP; cecal ligation and puncture) model was prepared according to the method of Wichterman et al. (J. Surg. Res. 29, 189-201 <1980>). That is, a rat fasted overnight was anesthetized with ether, and a midline laparotomy was performed and the cecum was exposed. The cecum was ligated with a 3-0 silk thread at its base and perforated two times with an 18 G injection needle. The cecum was gently squeezed to extrude feces, which were spread around the abdomen, and the sectioned part was sutured. The animal was fixed in a Borrmann cage, and physiological saline or drug solution ([…]) was continuously given from the tail vein at an administration rate of 2.5 mg/kg/hr with an infusion pump (22 M, Harvard, 5 mL/kg/hr as a dose).
After 6 hr of the CLP treatment, the animal was sacrificed with carbonic acid gas. The abdominal cavity was washed by injecting phosphate buffered saline (PBS; 37° C., 10 mL) and the abdominal cavity washing containing ascites (PLF; peritoneal lavage fluid) was recovered. The recovery weight of the obtained PLF was measured, and PLF was centrifuged (1500 rpm for 5 min, 4° C.) to recover supernatant. The blood taken from the heart was centrifuged (3000 rpm for 10 min, 4° C.) using a serum separation tube, and the serum was recovered. The concentration of LPS in the abdominal cavity and serum was measured using Toxinometer MT-285 (Waco Pure Chemical Industries) preheated to 37° C., after diluting the supernatant and serum of the recovered PLF 10^5-fold and 10^2-fold, respectively, with sterile distilled water, and adding 200 μL thereof to a limulus reagent (LAL ES, Waco Pure Chemical Industries). The amount of LPS per abdominal cavity was calculated from amount of recovered abdominal cavity washing (PLF)×LPS concentration of PLF.
The LPS inhibitory ratio of the compound was calculated as the ratio of LPS concentration of the compound administration group to LPS concentration of the physiological saline administration group.

[3] = peritoneal lavage fluid 6 hr after CLP, read-out: LPS inhibitory ratio (%) in abdominal cavity
[4] = serum 6 hr after CLP, read-out: LPS inhibitory ratio (%) in blood

Row | SMILES | inhibitory effect of compound on LPS in E. coli culture supernatant, relative ratio ([1]; sodium salt) | inhibitory effect of compound on LPS in E. coli culture supernatant, relative ratio [1] | further results
1 | CNC(=O)[C@H](Cc1ccc(OCCCS(=O)(=O)[O-])cc1)NC(=O)[C@H](CC(C)C)C(CN1C(=O)c2ccccc2C1=O)C(=O)NO.[Na+] (single isomer, unassigned) [Example 1, 5-methyl-3(R)-{1(S)-methylcarbamoyl-2-[4-(3-sulfopropoxy)phenyl]ethylcarbamoyl}-2(R or S)-phthalimidomethylhexanohydroxamic acid sodium salt] | 1.0 | – | LPS inhibitory ratio ([1]; final concentration of compound 100 μM, shake culture 37° C., limulus reagent): 46.5-65.8%; inhibition in vivo at 2.5 mg/kg/h [2, 3]: 88.3%; inhibition in vivo at 2.5 mg/kg/h [2, 4]: 79.9%
2 | CNC(=O)[C@@H](Cc1ccc(OCCCS(=O)(=O)[O-])cc1)NC(=O)[C@H](CC(C)C)C(CN1C(=O)c2ccccc2C1=O)C(=O)NO.[Na+] (single isomer, unassigned) [Example 3, 5-methyl-3(R)-{1(R)-methylcarbamoyl-2-[4-(3-sulfopropoxy)phenyl]ethylcarbamoyl}-2(R or S)-phthalimidomethylhexanohydroxamic acid sodium salt] | 0.70 | – | –
3 | CNC(=O)[C@H](Cc1ccc(OCCCS(=O)(=O)[O-])cc1)NC(=O)[C@H](CC(C)C)C(CN1C(=O)c2ccccc2C1=O)C(=O)NO.[Na+] (single isomer, unassigned) [Example 4, 5-methyl-3(R)-{1(S)-methylcarbamoyl-2-[4-(3-sulfopropoxy)phenyl]ethylcarbamoyl}-2(R or S)-phthalimidomethylhexanohydroxamic acid sodium salt] | 0.69 | – | –
4 | CNC(=O)[C@@H](Cc1ccc(OCCCS(=O)(=O)[O-])cc1)NC(=O)[C@H](CC(C)C)C(CN1C(=O)c2ccccc2C1=O)C(=O)NO.[Na+] (single isomer, unassigned) [Example 5, 5-methyl-3(R)-{1(R)-methylcarbamoyl-2-[4-(3-sulfopropoxy)phenyl]ethylcarbamoyl}-2(R or S)-phthalimidomethylhexanohydroxamic acid sodium salt] | 0.80 | – | –
5 | CNC(=O)[C@@H](Cc1ccc(OCCCS(=O)(=O)[O-])cc1)NC(=O)[C@@H](CC(C)C)C(CN1C(=O)c2ccccc2C1=O)C(=O)NO.[Na+] (single isomer, unassigned) [Example 6, 5-methyl-3(S)-{1(R)-methylcarbamoyl-2-[4-(3-sulfopropoxy)phenyl]ethylcarbamoyl}-2(R or S)-phthalimidomethylhexanohydroxamic acid sodium salt] | 0.69 | – | –
6 | CNC(=O)[C@H](Cc1ccc(OCCCS(=O)(=O)[O-])cc1)NC(=O)[C@@H](CC(C)C)C(CN1C(=O)c2ccccc2C1=O)C(=O)NO.[Na+] (single isomer, unassigned) [Example 7, 5-methyl-3(S)-{1(S)-methylcarbamoyl-2-[4-(3-sulfopropoxy)phenyl]ethylcarbamoyl}-2(R or S)-phthalimidomethylhexanohydroxamic acid sodium salt] | 0.79 | – | –
7 | CNC(=O)[C@@H](Cc1ccc(OCCCS(=O)(=O)[O-])cc1)NC(=O)[C@@H](CC(C)C)C(CN1C(=O)c2ccccc2C1=O)C(=O)NO.[Na+] (single isomer, unassigned) [Example 8, 5-methyl-3(S)-{1(R)-methylcarbamoyl-2-[4-(3-sulfopropoxy)phenyl]ethylcarbamoyl}-2(R or S)-phthalimidomethylhexanohydroxamic acid sodium salt] | 0.60 | – | –
8 | CNC(=O)[C@H](Cc1ccc(OCCCS(=O)(=O)[O-])cc1)NC(=O)[C@@H](CC(C)C)C(CN1C(=O)c2ccccc2C1=O)C(=O)NO.[Na+] (single isomer, unassigned) [Example 9, 5-methyl-3(S)-{1(S)-methylcarbamoyl-2-[4-(3-sulfopropoxy)phenyl]ethylcarbamoyl}-2(R or S)-phthalimidomethylhexanohydroxamic acid sodium salt] | 0.51 | – | –
9 | CNC(=O)[C@H](Cc1ccc(OCCS(=O)(=O)[O-])cc1)NC(=O)[C@H](CC(C)C)C(CN1C(=O)c2ccccc2C1=O)C(=O)NO.[Na+] (single isomer, unassigned) [Example 10, 5-methyl-3(R)-{1(S)-methylcarbamoyl-2-[4-(2-sulfoethoxy)phenyl]ethylcarbamoyl}-2(R or S)-phthalimidomethylhexanohydroxamic acid sodium salt] | – | 0.87 | inhibition in vivo at 2.5 mg/kg/h [2, 3]: 88.1%; inhibition in vivo at 2.5 mg/kg/h [2, 4]: 81.4%
10 | CNC(=O)[C@H](Cc1ccc(OCCCCS(=O)(=O)[O-])cc1)NC(=O)[C@H](CC(C)C)C(CN1C(=O)c2ccccc2C1=O)C(=O)NO.[Na+] (single isomer, unassigned) [Example 11, 5-methyl-3(R)-{1(S)-methylcarbamoyl-2-[4-(4-sulfobutoxy)phenyl]ethylcarbamoyl}-2(R or S)-phthalimidomethylhexanohydroxamic acid sodium salt] | – | 0.74 | inhibition in vivo at 2.5 mg/kg/h [2, 3]: 5.5%; inhibition in vivo at 2.5 mg/kg/h [2, 4]: 36.2%
11 | CNC(=O)[C@H](Cc1ccc(OCCCCCS(=O)(=O)[O-])cc1)NC(=O)[C@H](CC(C)C)C(CN1C(=O)c2ccccc2C1=O)C(=O)NO.[Na+] (single isomer, unassigned) [Example 12, 5-methyl-3(R)-{1(S)-methylcarbamoyl-2-[4-(5-sulfopentoxy)phenyl]ethylcarbamoyl}-2(R or S)-phthalimidomethylhexanohydroxamic acid sodium salt] | – | 0.85 | –
12 | CNC(=O)[C@H](Cc1ccc(OCCCS(=O)(=O)[O-])cc1)NC(=O)[C@H](CC(C)C)C(Cc1ccc2ccccc2c1)C(=O)NO.[Na+] (single isomer, unassigned) [Example 13, 5-methyl-3(R)-{1(S)-methylcarbamoyl-2-[4-(3-sulfopropoxy)phenyl]ethylcarbamoyl}-2(R or S)-(2-naphthylmethyl)hexanohydroxamic acid sodium salt] | – | 0.87 | inhibition in vivo at 2.5 mg/kg/h [2, 3]: 44.7%; inhibition in vivo at 2.5 mg/kg/h [2, 4]: 74.2%
13 | CC(C)C[C@@H](C(=O)N[C@@H](Cc1ccccc1)C(=O)NCS(=O)(=O)[O-])C(Cc1ccc2ccccc2c1)C(=O)NO.[Na+] (single isomer, unassigned) [Example 25, 5-methyl-2(R or S)-(2-naphthylmethyl)-3(R)-[2-phenyl-1(S)-(sulfomethylcarbamoyl)ethylcarbamoyl]hexanohydroxamic acid sodium salt] | – | 0.33 | –
14 | CC(C)C[C@@H](C(=O)N[C@@H](Cc1ccccc1)C(=O)NCCS(=O)(=O)[O-])C(Cc1ccc2ccccc2c1)C(=O)NO.[Na+] (single isomer, unassigned) [Example 26, 5-methyl-2(R or S)-(2-naphthylmethyl)-3(R)-[2-phenyl-1(S)-(2-sulfoethylcarbamoyl)ethylcarbamoyl]hexanohydroxamic acid sodium salt] | – | 0.54 | –
